Data reported in patent US7374875B2, “Peptides having affinity for the gp120 viral protein and use thereof” (priority 2001, dated 2008).

System: PHA-P-activated PBMCs
Assay: Toxicity test, viability of PHA-P-activated PBMCs
Format: cell-based, human
Details: at the doses tested
Procedure: The PBMCs are separated from the other represented elements of the blood by ficoll (MSL 2000, Eurobio) gradient centrifiguation: 30 ml of blood, from a healthy donor, diluted by a third are deposited onto a 20 ml ficoll cushion. After centrifugation for 20 min at 850 g, the ring of PBMCs is removed and then washed twice with RPMI 1640, after centrifugation at 750 g for 10 min and at 400 g for 5 min. The PBMCs are then activated for 48 h with 1 μg/ml of phytohaemagglutinin-P (PHA-P; Difco Laboratories). The PBMCs are cultured at +37° C., in an atmosphere saturated with humidity, under 5% CO2. At the end of the 48 hours of mitogenic activation, they are cultured in medium B. Throughout the culturing, the culture supernatants are sampled, and the culture media are renewed every three or four days. At each renewal of the culture media, the cell viability is evaluated by microscopic observation.
In all the experiments, the effects of the new molecules were compared to those of AZT. […] CD4 mimetic toxicity tests were also carried out on the same cells.

## Cc1cn([C@H]2C[C@H](N=[N+]=[N-])[C@@H](CO)O2)c(=O)[nH]c1=O [AZT]
  viability of the PHA-P-activated PBMCs (in words): none of the compounds, AZT, SAH-CD4 or anti-CD4 mimetics, decreased the viability
